In patent US10385036B2, “Sulfonamide-substituted indole modulators of RORC2 and methods of use thereof” (Pfizer Inc., priority 2015, dated 2019) one finds IC50 data, which are given here for 25 compounds.

pIC50: −log10 of the molar value. Where two headings read alike, the source gives them in different places.

The target of assay [1] is RORC2 ligand binding domain (6-His-RORC2 LBD) (Homo sapiens (Human), UniProt P51449). As to the kind of experiment: Assay of co-activator recruitment by TR-FRET. Format: biochemical. The conditions noted are these: 6-His-RORC2 LBD / biotin-coactivator peptide SRC1-2 interaction, 3 hr room temperature. Here is the method:
The activity of compound of the invention can be determined by a co-activator recruitment by TR-FRET (time-resolved fluorescence resonance energy transfer) assay. […] When receptor and coactivator are bound to each other, upon shining light at 337 nm on the sample, the Europium emits fluorescence that excites APC due to close proximity (FRET) and this signal is measured at 665 nm. Due to the long lasting fluorescence emission of Europium, the non-specific, short-lived fluorescence is time-resolved (TR) from the fluorescence of interest. Inhibitors of the interaction of receptor and coactivator peptide are detected by a decrease in TR-FRET signal.
Specifically, in one embodiment the aforementioned assay was performed as outlined below. The assay was carried out in black polystyrene, 384-well plates in a total assay volume of 50.5 μL. The assay buffer contained 50 mM TRIS-HCL pH 7.5, 1 mM NaCl, 2 mM MgCl2, 0.5 mg/mL bovine serum albumin, and 5 mM dithiothreitol.
In general terms: Time-resolved FRET reads energy transfer from a long-lived donor to a nearby acceptor.

The test system of assay [2] is IL-17 production from human Th17 cells. As to the kind of experiment: Assay of IL-17 production from human Th17 cells. Format: cell-based. The following applies: 144 h. Here is the method: The activity of compound of the invention can be also be determined by an IL-17 production from human Th17 cells assay. In general, this assay measures blockade of IL-17 production, the signature cytokine of T helper 17 (Th17) cells, by compounds. Purified human CD4+ T cells are stimulated with anti-CD3+anti-CD28 and incubated with a cytokine cocktail that induce their differentiation into Th17 in the absence or presence of various concentrations of compound. After 6 days, IL-17A concentration is measured in the cell culture supernatant with an ELISA kit (MSD).
Preparation of human CD4+ T cells. CD4+ T cells were purified from buffy coats from healthy donors (obtained from Massachusetts General Hospital) by negative selection the following procedure: Mixing 25 mL of blood with 1 mL of Rosette Sep CD4+ T cell enrichment cocktail (StemCell Technologies) followed by application of a layer of 14 mL Ficoll Paque Plus (Amersham GE Healthcare) and subsequent centrifugation at 1200 g for 20 min at room temperature. The Ficoll layer was then harvested and washed with phosphate saline buffer containing 2% (v/v) fetal bovine serum and cells were resuspended with RPMI medium containing 10% (v/v) fetal bovine serum and 10% (v/v) DMSO, frozen and kept in LN2 until used.
[…] Serial dilutions of compounds of the invention are prepared at 10× final concentration in X-Vivo15 medium containing 3% (v/v) DMSO.
On the second day of the assay, a 384-well tissue culture plate was coated with 10 μg/mL anti-hCD3 (eBioscience) at 50 μL/well. After 2 hr at 37° C., the supernatant is discarded and the coated plates are kept in a sterile tissue culture hood.
The cytokine plus anti-CD28 cocktail with CD4+ cells is prepared such that the cocktail is diluted 10-fold and cell density is 0.22×10^6/mL. The mixture is incubated 1 hr at 37° C.
90 μL (20,000 cells) dispensed per well in the anti-hCD3 coated plate prepared as noted above.
10 μL 10× compound is added per well (final DMSO=0.3%) from the compound plate that was previously prepared, followed by 6 days of incubation in a tissue culture vessel in a humidified chamber at 37° C. and 5% CO2.
Measurement is carried out in a Sector Imager 6000 by the same manufacturer. Signal units from the instrument are converted to pg/mL using a calibration curve with known amounts of IL-17A. IC50 values of test compounds (Table 2) are determined by the non-linear regression analysis of dose response curves.

Setting [3] is: IL-17A in supernatant by ELISA (MSD) after 6 days, human CD4+ T cells differentiated into Th17, read-out: IC50.

RORC2 ligand binding domain (6-His-RORC2 LBD), sequence (P51449 269-508): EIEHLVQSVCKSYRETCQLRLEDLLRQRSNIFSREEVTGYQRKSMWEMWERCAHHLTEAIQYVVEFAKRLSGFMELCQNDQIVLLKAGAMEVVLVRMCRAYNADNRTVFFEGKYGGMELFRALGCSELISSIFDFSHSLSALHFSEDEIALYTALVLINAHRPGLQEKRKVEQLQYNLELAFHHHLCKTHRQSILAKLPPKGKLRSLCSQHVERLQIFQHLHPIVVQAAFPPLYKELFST

For `Cn1cc(C2CCN(C(=O)C3CC3)CC2)c2cc(NS(=O)(=O)c3ccc(F)cc3)ccc21` [Example 8, N-(3-(1-(cyclopropanecarbonyl)piperidin-4-yl)-1-methyl-1H-indol-5-yl)-4-fluorobenzenesulfonamide], the negative-log IC50 (pIC50) (commonly the IC50 on a negative log10 scale, so that one unit is a factor of ten) in assay [1] was 7.77; in assay [2] (setting [3]), 6.74.
For the compound `CC(C)C(=O)N1CCC(c2cn(C)c3ccc(NS(=O)(=O)c4ccc(F)c(O[C@@H]5CCOC5)c4)cc23)CC1` [Example 24, (R)-4-fluoro-N-(3-(1-isobutyrylpiperidin-4-yl)-1-methyl-1H-indol-5-yl)-3-((tetrahydrofuran-3-yl)oxy)benzenesulfonamide], the negative logarithm of the IC50 (pIC50) in assay [2] (Homo sapiens, CD4+ T) is 7.16.
On to `CCOc1ccccc1S(=O)(=O)Nc1ccc2c(c1)c(C1CCN(C(=O)[C@H](C)C(C)(C)C)CC1)cn2C` [Example 27, (R)-2-ethoxy-N-(1-methyl-3-(1-(2,3,3-trimethylbutanoyl)piperidin-4-yl)-1H-indol-5-yl)benzenesulfonamide], for which the pIC50 in assay [2] (Homo sapiens, CD4+ T) is 7.80.
On to `Cc1ccc(S(=O)(=O)Nc2ccc3c(c2)c(C2CCN(C(=O)[C@H](C)C(C)(C)C)CC2)cn3C)cc1` [Example 25, (R)-4-methyl-N-(1-methyl-3-(1-(2,3,3-trimethylbutanoyl)piperidin-4-yl)-1H-indol-5-yl)benzenesulfonamide], for which, in assay [2] (Homo sapiens, CD4+ T), the negative-log IC50 (pIC50) is 7.97.
As for `Cn1cc(C2CCN(C(=O)c3ccns3)CC2)c2cc(NS(=O)(=O)c3ccc(F)cc3)ccc21` [Example 6, 4-fluoro-N-(3-(1-(isothiazole-5-carbonyl)piperidin-4-yl)-1-methyl-1H-indol-5-yl)benzenesulfonamide], the negative-log IC50 (pIC50) in assay [1] was 7.12; in assay [2] (setting [3]), 6.56.
Compound `Cn1cc(C2CCN(C(=O)C3CCCCC3)CC2)c2cc(NS(=O)(=O)c3ccc(F)cc3)ccc21` [Example 14, N-(3-(1-(cyclohexanecarbonyl)-piperidin-4-yl)-1-methyl-1H-indol-5-yl)-4-fluorobenzenesulfonamide] showed a pIC50 in assay [2] (Homo sapiens, CD4+ T) of 6.66.
Turning to `COc1cc(S(=O)(=O)Nc2ccc3c(c2)c(C2CCN(C(=O)C(C)C)CC2)cn3C)ccc1F` [Example 22, 4-fluoro-N-(3-(1-isobutyrylpiperidin-4-yl)-1-methyl-1H-indol-5-yl)-3-methoxybenzenesulfonamide], the pIC50 in assay [1] is 7.97; in assay [2] (setting [3]), 6.57.
Turning to `CC(C)C(=O)N1CC[C@@H](c2cn(C)c3ccc(NS(=O)(=O)c4ccc(F)cc4)cc23)[C@@H](C)C1` (single isomer, unassigned) [Example 5], the pIC50 in assay [1] was 8.29; in assay [2] (setting [3]), 7.04.
Consider `Cc1nn(C)c(C)c1S(=O)(=O)Nc1ccc2c(c1)c([C@@H]1CCN(C(=O)[C@H](C)C3CCCC3)C[C@@H]1C)cn2C` (single isomer, unassigned) [Example 32], for which the pIC50 is 8.60 in assay [1] and 8.48 in assay [2] (setting [3]).
`C[C@@H](C(=O)N1CC[C@@H](c2cn(C)c3ccc(NS(=O)(=O)c4ccc(F)cc4)cc23)[C@@H](C)C1)C1CCCC1` [Example 2, N-(3-((3R,4R)-1-((R)-2-cyclopentylpropanoyl)-3-methylpiperidin-4-yl)-1-methyl-1H-indol-5-yl)-4-fluorobenzenesulfonamide]: in assay [2] (Homo sapiens, CD4+ T), the negative-log IC50 (pIC50) was 8.32.
With `C[C@@H](C(=O)N1CCC(c2cn(C)c3ccc(NS(=O)(=O)c4ccc(F)cc4)cc23)CC1)C1CCCC1` [Example 7, (R)-N-(3-(1-(2-cyclopentylpropanoyl)piperidin-4-yl)-1-methyl-1H-indol-5-yl)-4-fluorobenzenesulfonamide], the pIC50 was 8.35 in assay [1] and 7.55 in assay [2] (setting [3]).
Take `C[C@@H](C(=O)N1CC[C@@H](c2cn(C)c3ccc(NS(=O)(=O)c4ccccc4F)cc23)[C@@H](C)C1)C1CCCC1` (single isomer, unassigned) [Example 34]: the negative-log IC50 (pIC50) in assay [2] (Homo sapiens, CD4+ T) was 8.38.
As for `C[C@@H](C(=O)N1CCC(c2cn(C)c3ccc(NS(=O)(=O)c4ccccc4)cc23)CC1)C(C)(C)C` [Example 29, (R)-N-(1-methyl-3-(1-(2,3,3-trimethylbutanoyl)piperidin-4-yl)-1H-indol-5-yl)benzenesulfonamide], the pIC50 in assay [2] (Homo sapiens, CD4+ T) was 7.55.
Still for that read-out and setting: then `C[C@@H](C(=O)N1CCC(c2cn(C)c3ccc(NS(=O)(=O)c4ccccc4F)cc23)CC1)C(C)(C)C` [Example 28, (R)-2-fluoro-N-(1-methyl-3-(1-(2,3,3-trimethylbutanoyl)piperidin-4-yl)-1H-indol-5-yl)benzenesulfonamide], with 7.94.
The compound `C[C@@H](C(=O)N1CCC(c2cn(C)c3ccc(NS(=O)(=O)c4ccc(F)cc4)cc23)CC1)C(C)(C)C` [Example 10, (R)-4-fiuoro-N-(1-methyl-3-(1-(2,3,3-trimethylbutanoyl)piperidin-4-yl)-1H-indol-5-yl)benzenesulfonamide] showed a pIC50 in assay [2] (Homo sapiens, CD4+ T) of 7.54.
In the case of `CCOc1ccccc1S(=O)(=O)Nc1ccc2c(c1)c([C@@H]1CCN(C(=O)[C@H](C)C3CCCC3)C[C@@H]1C)cn2C` (single isomer, unassigned) [Example 33], the pIC50 is 8.96 in assay [1] and 8.08 in assay [2] (setting [3]).
Turning to `Cc1noc(C)c1S(=O)(=O)Nc1ccc2c(c1)c(C1CCN(C(=O)[C@H](C)C(C)(C)C)CC1)cn2C` [Example 30, (R)-3,5-dimethyl-N-(1-methyl-3-(1-(2,3,3-trimethylbutanoyl)piperidin-4-yl)-1H-indol-5-yl)isoxazole-4-sulfonamide], the pIC50 in assay [1] is 8.00; in assay [2] (setting [3]) it was 7.70.
On the same counts, the results for `Cc1nn(C)c(C)c1S(=O)(=O)Nc1ccc2c(c1)c(C1CCN(C(=O)[C@H](C)C(C)(C)C)CC1)cn2C` [Example 26, (R)-1,3,5-trimethyl-N-(1-methyl-3-(1-(2,3,3-trimethylbutanoyl)piperidin-4-yl)-1H-indol-5-yl)-1H-pyrazole-4-sulfonamide] are 8.89 and 8.29.
Compound `CC(C)C(=O)N1CCC(c2cn(C)c3ccc(NS(=O)(=O)c4ccc(F)c(O)c4)cc23)CC1` [Example 23, 4-fluoro-3-hydroxy-N-(3-(1-isobutyrylpiperidin-4-yl)-1-methyl-1H-indol-5-yl)benzenesulfonamide] had a pIC50 in assay [2] (Homo sapiens, CD4+ T) of 5.84.
For the compound `CC(C)CC(=O)N1CCC(c2cn(C)c3ccc(NS(=O)(=O)c4ccc(F)cc4)cc23)CC1` [Example 12, 4-Fluoro-N-(1-methyl-3-(1-(3-methylbutanoyl)piperidin-4-yl)-1H-indol-5-yl)benzenesulfonamide], the negative logarithm of the IC50 (pIC50) in assay [1] is 8.11; in assay [2] (setting [3]) it was 6.90.
`C[C@H]1C[C@@H](c2cn(C)c3ccc(NS(=O)(=O)c4ccc(F)cc4)cc23)CCN1C(=O)C1CCCC1` [Example 20, N-(3-((2S,4S)-1-(cyclopentanecarbonyl)-2-methylpiperidin-4-yl)-1-methyl-1H-indol-5-yl)-4-fluorobenzenesulfonamide] gave a pIC50 in assay [2] (Homo sapiens, CD4+ T) of 6.20.
On to `Cc1ccc(F)c(S(=O)(=O)Nc2ccc3c(c2)c([C@@H]2CCN(C(=O)[C@H](C)C4CCCC4)C[C@@H]2C)cn3C)c1` (single isomer, unassigned) [Example 35], for which the negative logarithm of the IC50 (pIC50) in assay [2] (Homo sapiens, CD4+ T) is 8.08.
The compound `C[C@H]1CN(C(=O)C2CCCC2)CC[C@H]1c1cn(C)c2ccc(NS(=O)(=O)c3ccc(F)cc3)cc12` (single isomer, unassigned) [Example 3] had a pIC50 in assay [2] (Homo sapiens, CD4+ T) of 6.92.
As for `C[C@@H]1CN(C(=O)C2CCCC2)CC[C@@H]1c1cn(C)c2ccc(NS(=O)(=O)c3ccc(F)cc3)cc12` (single isomer, unassigned) [Example 4], the pIC50 in assay [2] (Homo sapiens, CD4+ T) was 6.86.
In assay [2] (Homo sapiens, CD4+ T), `C[C@H]1C[C@H](c2cn(C)c3ccc(NS(=O)(=O)c4ccc(F)cc4)cc23)CCN1C(=O)C1CCCC1` [Example 21, N-(3-((2S,4R)-1-(cyclopentanecarbonyl)-2-methylpiperidin-4-yl)-1-methyl-1H-indol-5-yl)-4-fluorobenzenesulfonamide] gave a pIC50 of 7.05.
